# Test system: Enterobacter cloacae
# Test: Potentiation of meropenem-induced antibacterial activity against Enterobacter cloacae expressing TEM-1/KPC-2 assessed as meropenem MIC at 4 ug/ml by broth microdilution method (reference value: 8 ug/ml)
# Assay type: functional
# Details: dose 4 µg/ml
row,Structure (SMILES),MIC [µg/mL]
1,O=C1N2C[C@@H](CC[C@H]2C(F)(F)F)N1OS(=O)(=O)[O-].[Na+],0.06
2,O=C1N2C[C@@H](CC[C@H]2COC(F)(F)F)N1OS(=O)(=O)[O-].[Na+],0.25
3,O=C1N2CCC[C@H](C2)N1OS(=O)(=O)[O-].[Na+],2
4,O=C1N2C[C@@H](CC[C@H]2Cl)N1OS(=O)(=O)[O-].[Na+],0.06

# Biological target: not listed separately
# Test: Inhibition of beta lactamase CTXM-15 in Enterobacter cloacae assessed as decrease in enzyme activity using nitrocefin as substrate preincubated for 10 mins followed by substrate addition measured for 10 mins by fluorescence plate reader analysis
# Details: not given
row,Structure (SMILES),IC50 [µM]
1,O=C1N2C[C@@H](CC[C@H]2C(F)(F)F)N1OS(=O)(=O)[O-].[Na+],0.01
2,O=C1N2C[C@@H](CC[C@H]2COC(F)(F)F)N1OS(=O)(=O)[O-].[Na+],0.011
3,O=C1N2CCC[C@H](C2)N1OS(=O)(=O)[O-].[Na+],1.2
4,O=C1N2C[C@@H](CC[C@H]2Cl)N1OS(=O)(=O)[O-].[Na+],0.008

# Test system: Acinetobacter baumannii
# Test: Potentiation of meropenem-induced antibacterial activity against Acinetobacter baumannii expressing OXA-23 assessed as meropenem MIC at 4 ug/ml by broth microdilution method (reference value: 32 ug/ml)
# Assay type: functional
# Details: dose 4 µg/ml
row,Structure (SMILES),MIC [µg/mL]
1,O=C1N2C[C@@H](CC[C@H]2C(F)(F)F)N1OS(=O)(=O)[O-].[Na+],16
2,O=C1N2C[C@@H](CC[C@H]2COC(F)(F)F)N1OS(=O)(=O)[O-].[Na+],32
3,O=C1N2CCC[C@H](C2)N1OS(=O)(=O)[O-].[Na+],32
4,O=C1N2C[C@@H](CC[C@H]2Cl)N1OS(=O)(=O)[O-].[Na+],32

# Biological target: not listed separately
# Test: Inhibition of beta lactamase TEM-1 in Enterobacter cloacae assessed as decrease in enzyme activity using nitrocefin as substrate preincubated for 10 mins followed by substrate addition measured for 10 mins by fluorescence plate reader analysis
# Details: not given
row,Structure (SMILES),IC50 [µM]
1,O=C1N2C[C@@H](CC[C@H]2C(F)(F)F)N1OS(=O)(=O)[O-].[Na+],0.81
2,O=C1N2C[C@@H](CC[C@H]2COC(F)(F)F)N1OS(=O)(=O)[O-].[Na+],0.117
3,O=C1N2CCC[C@H](C2)N1OS(=O)(=O)[O-].[Na+],0.511
4,O=C1N2C[C@@H](CC[C@H]2Cl)N1OS(=O)(=O)[O-].[Na+],0.001

# Biological target: not listed separately
# Test: Inhibition of beta lactamase OXA-48 in Enterobacter cloacae assessed as decrease in enzyme activity using nitrocefin as substrate preincubated for 10 mins followed by substrate addition measured for 10 mins by fluorescence plate reader analysis
# Details: not given
row,Structure (SMILES),IC50 [µM]
1,O=C1N2C[C@@H](CC[C@H]2C(F)(F)F)N1OS(=O)(=O)[O-].[Na+],0.019
2,O=C1N2C[C@@H](CC[C@H]2COC(F)(F)F)N1OS(=O)(=O)[O-].[Na+],0.015
3,O=C1N2CCC[C@H](C2)N1OS(=O)(=O)[O-].[Na+],1.34
4,O=C1N2C[C@@H](CC[C@H]2Cl)N1OS(=O)(=O)[O-].[Na+],0.269

# Test system: Klebsiella pneumoniae
# Test: Potentiation of meropenem-induced antibacterial activity against Klebsiella pneumoniae expressing SHV-11/OXA-121 assessed as meropenem MIC at 4 ug/ml by broth microdilution method (reference value: 16 ug/ml)
# Assay type: functional
# Details: dose 4 µg/ml
row,Structure (SMILES),MIC [µg/mL]
1,O=C1N2C[C@@H](CC[C@H]2C(F)(F)F)N1OS(=O)(=O)[O-].[Na+],2
2,O=C1N2C[C@@H](CC[C@H]2COC(F)(F)F)N1OS(=O)(=O)[O-].[Na+],16
3,O=C1N2CCC[C@H](C2)N1OS(=O)(=O)[O-].[Na+],8
4,O=C1N2C[C@@H](CC[C@H]2Cl)N1OS(=O)(=O)[O-].[Na+],4

# Biological target: not listed separately
# Test: Inhibition of beta lactamase KPC-2 in Enterobacter cloacae assessed as decrease in enzyme activity using nitrocefin as substrate preincubated for 10 mins followed by substrate addition measured for 10 mins by fluorescence plate reader analysis
# Details: not given
row,Structure (SMILES),IC50 [µM]
1,O=C1N2C[C@@H](CC[C@H]2C(F)(F)F)N1OS(=O)(=O)[O-].[Na+],0.006
2,O=C1N2C[C@@H](CC[C@H]2COC(F)(F)F)N1OS(=O)(=O)[O-].[Na+],0.013
3,O=C1N2CCC[C@H](C2)N1OS(=O)(=O)[O-].[Na+],> 3
4,O=C1N2C[C@@H](CC[C@H]2Cl)N1OS(=O)(=O)[O-].[Na+],0.031

# Test system: Klebsiella pneumoniae
# Test: Potentiation of meropenem-induced antibacterial activity against Klebsiella pneumoniae expressing TEM-OSBL/CTX-M-14/OXA-48 assessed as meropenem MIC at 4 ug/ml by broth microdilution method (reference value: 16 ug/ml)
# Assay type: functional
# Details: dose 4 µg/ml
row,Structure (SMILES),MIC [µg/mL]
1,O=C1N2C[C@@H](CC[C@H]2C(F)(F)F)N1OS(=O)(=O)[O-].[Na+],2
2,O=C1N2C[C@@H](CC[C@H]2COC(F)(F)F)N1OS(=O)(=O)[O-].[Na+],8
3,O=C1N2CCC[C@H](C2)N1OS(=O)(=O)[O-].[Na+],4
4,O=C1N2C[C@@H](CC[C@H]2Cl)N1OS(=O)(=O)[O-].[Na+],4

# Biological target: not listed separately
# Test: Inhibition of bacteria beta lactamase OXA-23 assessed as decrease in enzyme activity using nitrocefin as substrate preincubated for 10 mins followed by substrate addition measured for 10 mins by fluorescence plate reader analysis
# Details: not given
row,Structure (SMILES),IC50 [µM]
1,O=C1N2C[C@@H](CC[C@H]2C(F)(F)F)N1OS(=O)(=O)[O-].[Na+],0.81
2,O=C1N2C[C@@H](CC[C@H]2COC(F)(F)F)N1OS(=O)(=O)[O-].[Na+],> 3
3,O=C1N2CCC[C@H](C2)N1OS(=O)(=O)[O-].[Na+],> 3

# Biological target: not listed separately
# Test: Inhibition of beta lactamase AmpC in Enterobacter cloacae assessed as decrease in enzyme activity using nitrocefin as substrate preincubated for 10 mins followed by substrate addition measured for 10 mins by fluorescence plate reader analysis
# Details: not given
row,Structure (SMILES),IC50 [µM]
1,O=C1N2C[C@@H](CC[C@H]2C(F)(F)F)N1OS(=O)(=O)[O-].[Na+],0.004
2,O=C1N2C[C@@H](CC[C@H]2COC(F)(F)F)N1OS(=O)(=O)[O-].[Na+],0.023
3,O=C1N2CCC[C@H](C2)N1OS(=O)(=O)[O-].[Na+],> 3
4,O=C1N2C[C@@H](CC[C@H]2Cl)N1OS(=O)(=O)[O-].[Na+],0.004

# Test system: Klebsiella pneumoniae
# Test: Potentiation of meropenem-induced antibacterial activity against Klebsiella pneumoniae expressing TEM-1/SHV-11/KPC-3 assessed as meropenem MIC at 4 ug/ml by broth microdilution method (reference value: 128 ug/ml)
# Assay type: functional
# Details: dose 4 µg/ml
row,Structure (SMILES),MIC [µg/mL]
1,O=C1N2C[C@@H](CC[C@H]2C(F)(F)F)N1OS(=O)(=O)[O-].[Na+],2
2,O=C1N2C[C@@H](CC[C@H]2COC(F)(F)F)N1OS(=O)(=O)[O-].[Na+],32
3,O=C1N2CCC[C@H](C2)N1OS(=O)(=O)[O-].[Na+],64
4,O=C1N2C[C@@H](CC[C@H]2Cl)N1OS(=O)(=O)[O-].[Na+],64

# Source: ChEMBL document CHEMBL4699665, “Discovery of ANT3310, a Novel Broad-Spectrum Serine β-Lactamase Inhibitor of the Diazabicyclooctane Class, Which Strongly Potentiates Meropenem Activity against Carbapenem-Resistant Enterobacterales and Acinetobacter baumannii” (J Med Chem, 2020)
